Source: PMC4209917 (Molecular cancer therapeutics, 2014)

Key:
[1] = biological target: T1, Choline kinase alpha (ChoK) (Homo sapiens, UniProt P35790); test: […]-choline phosphorylation in MDA-MB-231 cells; type: cell-based
[2] = biological target: T1, Choline kinase alpha (ChoK); test: […]-choline phosphorylation in intact MDA-MB-231 cells, […] h; type: cell-based

T1 sequence (P35790 whole entry): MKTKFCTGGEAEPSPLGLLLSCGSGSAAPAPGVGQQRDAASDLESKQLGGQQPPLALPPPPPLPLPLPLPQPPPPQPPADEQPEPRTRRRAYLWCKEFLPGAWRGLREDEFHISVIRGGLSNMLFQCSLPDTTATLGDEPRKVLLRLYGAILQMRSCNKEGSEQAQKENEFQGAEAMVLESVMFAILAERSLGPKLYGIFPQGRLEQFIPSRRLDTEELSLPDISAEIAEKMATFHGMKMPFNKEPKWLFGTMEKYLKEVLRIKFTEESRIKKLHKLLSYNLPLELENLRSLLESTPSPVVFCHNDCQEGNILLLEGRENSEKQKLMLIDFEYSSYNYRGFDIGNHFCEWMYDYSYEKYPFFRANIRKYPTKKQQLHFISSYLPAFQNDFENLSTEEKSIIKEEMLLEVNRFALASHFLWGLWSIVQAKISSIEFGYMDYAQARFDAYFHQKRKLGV

IC50 [1] [µM]	IC50 [2] [µM]	SMILES
4.6	–	CC1(C)C(/C=C/C=C/C=C/C=C2\N(CCO)c3ccccc3C2(C)C)=[N+](CCO)c2ccccc21 [JAS239, 1-(2-hydroxyethyl)-2-((1E,3E,5E)-7-((Z/E)-1-(2-hydroxyethyl)-3,3-dimethylindolin-2-ylidene)hepta-1,3,5-trien-1-yl)-3,3-dimethyl-3H-indol-1-ium chloride]
–	2.3	CN(C)c1cc[n+](Cc2ccc(CCCCc3ccc(C[n+]4ccc(N(C)C)cc4)cc3)cc2)cc1 [MN58b, 1,1′-((butane-1,4-diylbis(4,1-phenylene))bis(methylene))bis(4-(dimethylamino)pyridin-1-ium) bromide]
